From PubChem BioAssay (NCI)
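Briefly, cells in 96-well plates were exposed to five compound concentrations for 48 h, and endpoints were estimated by linear interpolation. The concentration for 50% growth inhibition is given as GI50. The concentration for full growth arrest is given as TGI.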

What was measured:
Assay in all cases: inhibition of tumour cell growth, NCI panel, 48 h
HCC-2998 colon = test system: HCC-2998 colon
HOP-62 NSCLC = test system: HOP-62 NSCLC
MDA-MB-231 breast = test system: MDA-MB-231 breast
786-0 renal = test system: 786-0 renal
NCI-H460 lung = test system: NCI-H460 lung
OVCAR-8 ovarian = test system: OVCAR-8 ovarian
NCI-H522 lung = test system: NCI-H522 lung
RXF 393 renal = test system: RXF 393 renal
LOX IMVI melanoma = test system: LOX IMVI melanoma
MCF7 breast = test system: MCF7 breast
HCT-15 colon = test system: HCT-15 colon
RPMI-8226 leukemia = test system: RPMI-8226 leukemia
HOP-92 NSCLC = test system: HOP-92 NSCLC
K-562 leukemia = test system: K-562 leukemia
SK-OV-3 ovarian = test system: SK-OV-3 ovarian
OVCAR-3 ovarian = test system: OVCAR-3 ovarian
CAKI-1 renal = test system: CAKI-1 renal
HCT-116 colon = test system: HCT-116 colon
KM12 colon = test system: KM12 colon
HS 578T breast = test system: HS 578T breast
BT-549 breast = test system: BT-549 breast
IGROV1 ovarian = test system: IGROV1 ovarian
SNB-75 CNS = test system: SNB-75 CNS
SF-295 CNS = test system: SF-295 CNS
NCI-H23 lung = test system: NCI-H23 lung
HL-60(TB) leukemia = test system: HL-60(TB) leukemia
SNB-19 CNS = test system: SNB-19 CNS
MALME-3M melanoma = test system: MALME-3M melanoma
T-47D breast = test system: T-47D breast
OVCAR-4 ovarian = test system: OVCAR-4 ovarian
HT29 colon = test system: HT29 colon
SF-539 CNS = test system: SF-539 CNS
MDA-MB-435 = test system: MDA-MB-435
U251 CNS = test system: U251 CNS
SF-268 CNS = test system: SF-268 CNS
UACC-257 melanoma = test system: UACC-257 melanoma
OVCAR-5 ovarian = test system: OVCAR-5 ovarian
PC-3 prostate = test system: PC-3 prostate
A549 NSCLC = test system: A549 NSCLC
UACC-62 melanoma = test system: UACC-62 melanoma
DU-145 prostate = test system: DU-145 prostate
ACHN renal = test system: ACHN renal
SK-MEL-2 melanoma = test system: SK-MEL-2 melanoma
MOLT-4 leukemia = test system: MOLT-4 leukemia
COLO 205 colon = test system: COLO 205 colon
NCI/ADR-RES ovarian = test system: NCI/ADR-RES ovarian
A498 renal = test system: A498 renal
SK-MEL-28 melanoma = test system: SK-MEL-28 melanoma
NCI-H226 lung = test system: NCI-H226 lung
UO-31 renal = test system: UO-31 renal
SK-MEL-5 melanoma = test system: SK-MEL-5 melanoma
M14 melanoma = test system: M14 melanoma
SW-620 colon = test system: SW-620 colon
SR leukemia = test system: SR leukemia
TK-10 renal = test system: TK-10 renal
SN12C renal = test system: SN12C renal
EKVX NSCLC = test system: EKVX NSCLC

## COc1c2ccoc2c(/C=C/C=O)c2oc(-c3ccccc3)cc(=O)c12
HCC-2998 colon
  GI50: 16.1 µM
  TGI: 42 µM
HOP-62 NSCLC
  GI50: 2.49 µM
  TGI: 9.48 µM
MDA-MB-231 breast
  GI50: 4.1 µM
  TGI: > 100 µM
786-0 renal
  GI50: 26.9 µM
  TGI: > 100 µM
NCI-H460 lung
  GI50: 11.3 µM
  TGI: 61.4 µM
OVCAR-8 ovarian
  GI50: 2.86 µM
  TGI: > 100 µM
NCI-H522 lung
  GI50: 17.6 µM
  TGI: > 100 µM
RXF 393 renal
  GI50: 4.26 µM
  TGI: 14.7 µM
LOX IMVI melanoma
  GI50: 1.48 µM
  TGI: 2.8 µM
MCF7 breast
  GI50: 2.72 µM
  TGI: 58.3 µM
HCT-15 colon
  GI50: 2.52 µM
  TGI: 9.06 µM
RPMI-8226 leukemia
  GI50: 2.24 µM
  TGI: 5.81 µM
HOP-92 NSCLC
  GI50: 11.5 µM
  TGI: > 100 µM
K-562 leukemia
  GI50: 3.21 µM
  TGI: > 100 µM
SK-OV-3 ovarian
  GI50: 6.34 µM
  TGI: 42.6 µM
OVCAR-3 ovarian
  GI50: 5.19 µM
  TGI: 21.7 µM
CAKI-1 renal
  GI50: 15.4 µM
  TGI: > 100 µM
HCT-116 colon
  GI50: 1.7 µM
  TGI: 4.73 µM
KM12 colon
  GI50: 16.5 µM
  TGI: 43.5 µM
HS 578T breast
  GI50: 7.2 µM
  TGI: > 100 µM
BT-549 breast
  GI50: 2.88 µM
  TGI: 13.1 µM
IGROV1 ovarian
  GI50: 17.5 µM
  TGI: > 100 µM
SNB-75 CNS
  GI50: 8.3 µM
  TGI: 67.1 µM
SF-295 CNS
  GI50: 13.6 µM
  TGI: 97.9 µM
NCI-H23 lung
  GI50: 2.44 µM
  TGI: 8.08 µM
HL-60(TB) leukemia
  GI50: 2.33 µM
  TGI: 5.62 µM
SNB-19 CNS
  GI50: 12 µM
  TGI: > 100 µM
MALME-3M melanoma
  GI50: 3.57 µM
  TGI: 9.17 µM
T-47D breast
  GI50: 2.14 µM
  TGI: 6.25 µM
OVCAR-4 ovarian
  GI50: 3.2 µM
  TGI: > 100 µM
HT29 colon
  GI50: 25.1 µM
  TGI: > 100 µM
SF-539 CNS
  GI50: 3.59 µM
  TGI: 16.4 µM
MDA-MB-435
  GI50: 4.83 µM
  TGI: > 100 µM
U251 CNS
  GI50: 3.06 µM
  TGI: 12.9 µM
SF-268 CNS
  GI50: 4.23 µM
  TGI: > 100 µM
UACC-257 melanoma
  GI50: 11.5 µM
  TGI: 24.2 µM
OVCAR-5 ovarian
  GI50: 22.3 µM
  TGI: 63.7 µM
PC-3 prostate
  GI50: 3.23 µM
  TGI: > 100 µM
A549 NSCLC
  GI50: 21.5 µM
  TGI: > 100 µM
UACC-62 melanoma
  GI50: 5.45 µM
  TGI: 22.7 µM
DU-145 prostate
  GI50: 10.7 µM
  TGI: > 100 µM
ACHN renal
  GI50: 20.8 µM
  TGI: > 100 µM
SK-MEL-2 melanoma
  GI50: 10.6 µM
  TGI: > 100 µM
MOLT-4 leukemia
  GI50: 2.06 µM
  TGI: 5.24 µM
COLO 205 colon
  GI50: 27.7 µM
  TGI: > 100 µM
NCI/ADR-RES ovarian
  GI50: 3.01 µM
  TGI: > 100 µM
A498 renal
  GI50: 7.44 µM
  TGI: 40.7 µM
SK-MEL-28 melanoma
  GI50: 2.73 µM
  TGI: 9.17 µM
NCI-H226 lung
  GI50: 4.14 µM
  TGI: 20.4 µM
UO-31 renal
  GI50: 3.62 µM
  TGI: 35.2 µM
SK-MEL-5 melanoma
  GI50: 3.04 µM
  TGI: 12.3 µM
M14 melanoma
  GI50: 3.32 µM
  TGI: > 100 µM
SW-620 colon
  GI50: 2.16 µM
  TGI: 5.21 µM

## O=C1/C(=C/c2ccc([N+](=O)[O-])cc2)COc2ccc(O)c(O)c21
HCC-2998 colon
  GI50: 1.76 µM
  TGI: 3.38 µM
HOP-62 NSCLC
  GI50: 2.57 µM
  TGI: 6.34 µM
MDA-MB-231 breast
  GI50: 1.33 µM
  TGI: 2.81 µM
786-0 renal
  GI50: 1.35 µM
  TGI: 3.59 µM
NCI-H460 lung
  GI50: 1.74 µM
  TGI: 3.84 µM
OVCAR-8 ovarian
  GI50: 2.29 µM
  TGI: 9.93 µM
NCI-H522 lung
  GI50: 0.204 µM
  TGI: 0.474 µM
SR leukemia
  GI50: 0.463 µM
  TGI: > 100 µM
LOX IMVI melanoma
  GI50: 1.05 µM
  TGI: 2.29 µM
HCT-15 colon
  GI50: 0.606 µM
  TGI: 3.55 µM
RPMI-8226 leukemia
  GI50: 0.316 µM
  TGI: 1.01 µM
HOP-92 NSCLC
  GI50: 1.99 µM
  TGI: 4.96 µM
K-562 leukemia
  GI50: 0.547 µM
  TGI: > 100 µM
SK-OV-3 ovarian
  GI50: 2.98 µM
  TGI: 9.62 µM
OVCAR-3 ovarian
  GI50: 0.79 µM
  TGI: 2.14 µM
CAKI-1 renal
  GI50: 1.27 µM
  TGI: 2.54 µM
HCT-116 colon
  GI50: 1.57 µM
  TGI: 3.35 µM
KM12 colon
  GI50: 1.58 µM
  TGI: 3.47 µM
HS 578T breast
  GI50: 1.94 µM
  TGI: 4.75 µM
BT-549 breast
  GI50: 1.44 µM
  TGI: 3.19 µM
IGROV1 ovarian
  GI50: 1.25 µM
  TGI: 3.55 µM
SNB-75 CNS
  GI50: 1.55 µM
  TGI: 3.82 µM
SF-295 CNS
  GI50: 2.21 µM
  TGI: 5.17 µM
TK-10 renal
  GI50: 1.68 µM
  TGI: 3.99 µM
NCI-H23 lung
  GI50: 1.77 µM
  TGI: 3.74 µM
HL-60(TB) leukemia
  GI50: 0.896 µM
  TGI: 6.45 µM
SNB-19 CNS
  GI50: 1.56 µM
  TGI: 3.1 µM
MALME-3M melanoma
  GI50: 1.84 µM
  TGI: 5.22 µM
T-47D breast
  GI50: 1.32 µM
  TGI: 3.65 µM
OVCAR-4 ovarian
  GI50: 1.44 µM
  TGI: 2.78 µM
HT29 colon
  GI50: 2.2 µM
  TGI: 5.85 µM
SN12C renal
  GI50: 1.54 µM
  TGI: 4.19 µM
SF-539 CNS
  GI50: 1.7 µM
  TGI: 3.33 µM
MDA-MB-435
  GI50: 1.58 µM
  TGI: 3.08 µM
U251 CNS
  GI50: 0.785 µM
  TGI: 3.55 µM
EKVX NSCLC
  GI50: 1.77 µM
  TGI: 3.72 µM
SF-268 CNS
  GI50: 1.51 µM
  TGI: 3.15 µM
UACC-257 melanoma
  GI50: 1.89 µM
  TGI: 4.32 µM
OVCAR-5 ovarian
  GI50: 1.81 µM
  TGI: 3.74 µM
PC-3 prostate
  GI50: 1.59 µM
  TGI: 4.53 µM
A549 NSCLC
  GI50: 2.04 µM
  TGI: 5.17 µM
UACC-62 melanoma
  GI50: 1.57 µM
  TGI: 3.35 µM
DU-145 prostate
  GI50: 1.46 µM
  TGI: 2.85 µM
ACHN renal
  GI50: 1.5 µM
  TGI: 2.92 µM
SK-MEL-2 melanoma
  GI50: 1.87 µM
  TGI: 4.37 µM
MOLT-4 leukemia
  GI50: 1.29 µM
  TGI: > 100 µM
COLO 205 colon
  GI50: 1.47 µM
  TGI: 3.69 µM
NCI/ADR-RES ovarian
  GI50: 2.66 µM
  TGI: 9.33 µM
A498 renal
  GI50: 1.71 µM
  TGI: 3.91 µM
SK-MEL-28 melanoma
  GI50: 2.1 µM
  TGI: 4.61 µM
NCI-H226 lung
  GI50: 11 µM
  TGI: 45.8 µM
UO-31 renal
  GI50: 0.696 µM
  TGI: 2.23 µM
SK-MEL-5 melanoma
  GI50: 2.12 µM
  TGI: 4.61 µM
M14 melanoma
  GI50: 1.54 µM
  TGI: 3.3 µM
SW-620 colon
  GI50: 1.31 µM
  TGI: 3.07 µM
